Assay results taken from patent US20070037788A1, “Tricyclic steroid hormone nuclear receptor modulators” (Eli Lilly and Company, priority 2003, published 2007).
Where a name gives a salt, the structure may show the parent alone.

target: T1, human GR (glucocorticoid receptor) (Homo sapiens, UniProt P04150); assay: Alternative Binding Assay Protocol (Method 2), GR; details: 293-GR lysate, 3H-dexamethasone
T1 construct: expressed in transfected cells; host or cells: 293 cells
T1 sequence (P04150 1-777): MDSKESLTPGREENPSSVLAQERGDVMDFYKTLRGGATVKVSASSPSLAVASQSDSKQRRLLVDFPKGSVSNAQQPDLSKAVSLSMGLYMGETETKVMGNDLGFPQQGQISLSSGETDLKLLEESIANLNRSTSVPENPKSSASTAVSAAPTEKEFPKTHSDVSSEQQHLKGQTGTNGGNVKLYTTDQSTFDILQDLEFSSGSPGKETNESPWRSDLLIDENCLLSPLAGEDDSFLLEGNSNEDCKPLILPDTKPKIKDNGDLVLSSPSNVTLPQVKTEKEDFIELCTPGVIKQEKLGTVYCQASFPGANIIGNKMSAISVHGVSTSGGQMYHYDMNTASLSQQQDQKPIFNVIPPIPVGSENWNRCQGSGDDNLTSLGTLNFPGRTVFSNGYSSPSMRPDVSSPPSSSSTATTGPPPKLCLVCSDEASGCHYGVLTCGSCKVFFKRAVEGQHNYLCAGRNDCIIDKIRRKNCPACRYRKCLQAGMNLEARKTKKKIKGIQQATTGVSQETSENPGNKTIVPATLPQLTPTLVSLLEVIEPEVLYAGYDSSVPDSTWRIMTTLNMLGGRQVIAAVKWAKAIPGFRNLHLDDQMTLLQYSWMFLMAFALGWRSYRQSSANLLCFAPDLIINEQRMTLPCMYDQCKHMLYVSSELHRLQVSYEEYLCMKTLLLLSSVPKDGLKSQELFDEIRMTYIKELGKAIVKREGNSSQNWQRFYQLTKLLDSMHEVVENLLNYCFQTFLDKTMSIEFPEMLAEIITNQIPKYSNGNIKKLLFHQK
Procedure: Cell lysates from 293 cells overexpressing human GR (glucocorticoid receptor), AR (androgen receptor), MR (mineralocorticoid receptor) or PR (progesterone receptor) are used for competition binding assays to determine Ki values for test compounds. Briefly, competition binding assays are run in a buffer containing 20 mM Hepes, pH 7.6, 0.2 mM EDTA, 75 mM NaCl, 1.5 mM MgCl2, 20% glycerol, 20 mM sodium molybdate, 0.2 mM DTT, 20 ug/ml aprotinin and 20 ug/ml leupeptin, using either 0.3 nM ^3H-dexamethasone for GR binding, 0.36 nM ^3H-methyltrienolone for AR binding, 0.25 nM ^3H-aldosterone for MR binding, or 0.29 nM ^3H-methyltrienolone for PR binding, and either 20 ug 293-GR lysate, 22 ug 293-AR lysate, 20 ug 293-MR lysate or 40 ug 293-PR lysate per well. Competing compounds are added at various concentrations in half-log increments. Non-specific binding is determined in the presence of 500 nM dexamethasone for GR binding, 500 nM aldosterone for MR binding, or 500 nM methyltrienolone for AR and PR binding. The binding reaction (140 μl) is incubated for overnight at 4° C., then 70 μl of cold charcoal-dextran buffer (containing per 50 ml of assay buffer, 0.75 g of charcoal and 0.25 g of dextran) is added to each reaction. Plates are mixed 8 minutes on an orbital shaker at 4° C. Plates are then centrifuged at 3,000 rpm at 4° C. for 10 minutes. An aliquot of 120 μl of the mix is transferred to another 96-well plate and 175 μl of Wallac Optiphase “Hisafe 3” scintillation fluid is added to each well. Plates are sealed and shaken vigorously on an orbital shaker. After an incubation of 2 hrs, plates are read in a Wallac Microbeta counter. The data is used to calculate an IC50 and % Inhibition at 10 μM. The Kd for ^3H-dexamethasone for GR binding, ^3H-methyltrienolone for AR binding, ^3H-aldosterone for MR binding, or ^3H-methyltrienolone for PR binding, is determined by saturation binding. The IC50 values for compounds are converted to Ki using Cheng-Prusoff equation and the Kd determined by saturation binding assay.

**Q.** For CC(C)(CN1CCOCC1)n1c(=O)[nH]c2cc(/C=C3\c4ccccc4COc4cc(F)ccc43)ccc21 [Example 1, 1-(1,1-Dimethyl-2-morpholin-4-yl-ethyl)-5-(3-fluoro-6H-dibenzo[b,e]oxepin-11-ylidenemethyl)-1,3-dihydro-benzoimidazol-2-one, E isomer], which Ki is on record?
**A.** The Ki was less than 1000 nM.

**Q.** With CN1CCC(n2c(=O)[nH]c3cc(/C=C4/c5ccc(F)cc5OCc5c(F)cccc54)ccc32)CC1 [Example 2, 5-(3,7-Difluoro-6H-dibenzo[b,e]oxepine-11-ylidenemethyl)-1-(1-methyl-piperidin-4-yl)-1,3-dihydro-benzoimidazol-2-one, E-isomer] as the compound, how does the Ki read?
**A.** Its Ki is less than 1000 nM.

**Q.** For CN1CCC(n2c(=O)[nH]c3cc(/C=C4\c5ccccc5COc5cc(F)ccc54)ccc32)CC1 [Example 3, 5-(3-Fluoro-6H-dibenzo[b,e]oxepin-11-ylidenemethyl)-1-(1-methyl-piperidin-4-yl)-1,3-dihydro-benzoimidazol-2-one, E isomer], which Ki is on record?
**A.** The Ki was less than 500 nM.

**Q.** For CN1CCC(n2c(=O)[nH]c3cc(/C=C4\c5ccc(F)cc5COc5cc(F)ccc54)ccc32)CC1 [Example 4, 5-(3,8-Difluoro-6H-dibenzo[b,e]oxepin-11-ylidenemethyl)-1-(1-methyl-piperidin-4-yl) -1,3-dihydro-benzoimidazol-2-one, E isomer], which Ki is on record?
**A.** The Ki was less than 1000 nM.

**Q.** With CCN1CC[C@@H](n2c(=O)[nH]c3cc(/C=C4\c5ccc(F)cc5COc5cc(F)ccc54)ccc32)C1 [Example 5, 5-(3,8-Difluoro-6H-dibenzo[b,e]oxepin-11-ylidenemethyl)-1-(1-ethyl-pyrrolidin-3-yl) -1,3-dihydro-benzoimidazol-2-one, HOAc salt, E isomer, chiral] as the compound, how does the Ki read?
**A.** Its Ki is less than 500 nM.

**Q.** Which Ki does the source give for CN1CCN(CCCn2c(=O)[nH]c3cc(/C=C4\c5ccccc5COc5cc(F)ccc54)ccc32)CC1 [Example 7] here?
**A.** Its Ki is less than 500 nM.

**Q.** For CN1CCN(CCn2c(=O)[nH]c3cc(/C=C4\c5ccccc5COc5cc(F)ccc54)ccc32)CC1 [Example 8], which Ki is on record?
**A.** Its Ki is less than 500 nM.

**Q.** O=c1[nH]c2cc(/C=C3\c4ccccc4COc4cc(F)ccc43)ccc2n1[C@H]1CCNC1 [Example 9] was tested. Which Ki did it give?
**A.** Its Ki is less than 500 nM.

**Q.** How did the Ki turn out when C[C@H](CN1CCOCC1)n1c(=O)[nH]c2cc(/C=C3\c4ccccc4COc4cc(F)ccc43)ccc21 [Example 10] was run?
**A.** Its Ki is less than 500 nM.

**Q.** C[C@@H](CN1CCOCC1)n1c(=O)[nH]c2cc(/C=C3\c4ccccc4COc4cc(F)ccc43)ccc21 [Example 11] was tested. Which Ki did it give?
**A.** Its Ki is less than 500 nM.

**Q.** How did the Ki turn out when O=c1[nH]c2cc(/C=C3\c4ccccc4COc4cc(F)ccc43)ccc2n1C1CCNCC1 [Example 12] was run?
**A.** The Ki was less than 1000 nM.

**Q.** Which Ki does the source give for C[C@@H]1CN(CCn2c(=O)[nH]c3cc(/C=C4\c5ccccc5COc5cc(F)ccc54)ccc32)C[C@H](C)O1 [Example 13] here?
**A.** The Ki was less than 500 nM.

**Q.** How did the Ki turn out when O=c1[nH]c2cc(/C=C3\c4ccccc4COc4cc(F)ccc43)ccc2n1CCN1CCNCC1 [Example 14] was run?
**A.** Its Ki is less than 500 nM.

**Q.** With O=c1[nH]c2cc(/C=C3\c4ccccc4COc4cc(F)ccc43)ccc2n1C1CCNC1 (centres unmarked) [Example 15] as the compound, how does the Ki read?
**A.** Its Ki is less than 500 nM.

**Q.** How did the Ki turn out when O=c1[nH]c2cc(/C=C3\c4ccccc4COc4cc(F)ccc43)ccc2n1C1CCNC1 (centres unmarked) [Example 16] was run?
**A.** The Ki was less than 500 nM.

**Q.** How did the Ki turn out when O=c1[nH]c2cc(/C=C3\c4ccccc4COc4cc(F)ccc43)ccc2n1C1CNC1 [Example 17] was run?
**A.** Its Ki is less than 500 nM.

**Q.** For O=c1[nH]c2cc(/C=C3\c4ccccc4COc4cc(F)ccc43)ccc2n1C[C@@H]1CCCN1 [Example 18], which Ki is on record?
**A.** The Ki was less than 1000 nM.

**Q.** Which Ki does the source give for O=c1[nH]c2cc(/C=C3\c4ccccc4COc4cc(F)ccc43)ccc2n1C[C@H]1CCCN1 [Example 19] here?
**A.** Its Ki is less than 1000 nM.

**Q.** How did the Ki turn out when CN1CCN(CCn2c(=O)[nH]c3cc(/C=C4\c5ccc(F)cc5COc5cc(F)ccc54)ccc32)CC1 [Example 20] was run?
**A.** Its Ki is less than 500 nM.

**Q.** O=c1[nH]c2cc(/C=C3\c4ccc(F)cc4COc4cc(F)ccc43)ccc2n1CCN1CCCC1 [Example 21] was tested. Which Ki did it give?
**A.** The Ki was less than 500 nM.

**Q.** For C[C@H](CN1CCOCC1)n1c(=O)[nH]c2cc(/C=C3\c4ccc(F)cc4COc4cc(F)ccc43)ccc21 [Example 22], which Ki is on record?
**A.** Its Ki is less than 500 nM.

**Q.** How did the Ki turn out when C[C@@H](CN1CCOCC1)n1c(=O)[nH]c2cc(/C=C3\c4ccc(F)cc4COc4cc(F)ccc43)ccc21 [Example 23] was run?
**A.** The Ki was less than 1000 nM.

**Q.** Which Ki does the source give for CC(C)(CN1CCOCC1)n1c(=O)[nH]c2cc(/C=C3\c4ccc(F)cc4COc4cc(F)ccc43)ccc21 [Example 24] here?
**A.** Its Ki is less than 1000 nM.

**Q.** How did the Ki turn out when C[C@@H]1CN(CCn2c(=O)[nH]c3cc(/C=C4\c5ccc(F)cc5COc5cc(F)ccc54)ccc32)C[C@H](C)O1 [Example 25] was run?
**A.** The Ki was less than 500 nM.

**Q.** How did the Ki turn out when O=c1[nH]c2cc(/C=C3\c4ccc(F)cc4COc4cc(F)ccc43)ccc2n1CCCN1CCOCC1 [Example 26] was run?
**A.** The Ki was less than 500 nM.

**Q.** O=c1[nH]c2cc(/C=C3\c4ccc(F)cc4COc4cc(F)ccc43)ccc2n1C1CCNCC1 [Example 28] was tested. Which Ki did it give?
**A.** Its Ki is less than 500 nM.

**Q.** How did the Ki turn out when O=c1[nH]c2cc(/C=C3\c4ccc(F)cc4COc4cc(F)ccc43)ccc2n1[C@H]1CCNC1 [Example 29] was run?
**A.** The Ki was less than 500 nM.

**Q.** With O=c1[nH]c2cc(/C=C3\c4ccc(F)cc4COc4cc(F)ccc43)ccc2n1C1CNC1 [Example 30] as the compound, how does the Ki read?
**A.** The Ki was less than 500 nM.

**Q.** How did the Ki turn out when O=c1[nH]c2cc(/C=C3\c4ccc(F)cc4COc4cc(F)ccc43)ccc2n1[C@@H]1CCNC1 [Example 31] was run?
**A.** The Ki was less than 500 nM.

**Q.** How did the Ki turn out when CN1CC[C@H](n2c(=O)[nH]c3cc(/C=C4\c5ccc(F)cc5COc5cc(F)ccc54)ccc32)C1 [Example 32] was run?
**A.** Its Ki is less than 500 nM.

**Q.** CCN1CC[C@H](n2c(=O)[nH]c3cc(/C=C4\c5ccc(F)cc5COc5cc(F)ccc54)ccc32)C1 [Example 33] was tested. Which Ki did it give?
**A.** The Ki was less than 500 nM.

**Q.** CN1CCN(CCn2c(=O)[nH]c3cc(/C=C4/c5ccc(F)cc5OCc5c(F)cccc54)ccc32)CC1 [Example 34] was tested. Which Ki did it give?
**A.** Its Ki is less than 500 nM.

**Q.** O=c1[nH]c2cc(/C=C3/c4ccc(F)cc4OCc4c(F)cccc43)ccc2n1CCN1CCCC1 [Example 35] was tested. Which Ki did it give?
**A.** The Ki was less than 1000 nM.

**Q.** Which Ki does the source give for O=c1[nH]c2cc(/C=C3/c4ccc(F)cc4OCc4c(F)cccc43)ccc2n1C1CCNCC1 [Example 36] here?
**A.** Its Ki is less than 500 nM.

**Q.** O=c1[nH]c2cc(/C=C3/c4ccc(F)cc4OCc4c(F)cccc43)ccc2n1[C@H]1CCNC1 [Example 37] was tested. Which Ki did it give?
**A.** The Ki was less than 500 nM.

**Q.** How did the Ki turn out when C[C@H](CN1CCOCC1)n1c(=O)[nH]c2cc(/C=C3/c4ccc(F)cc4OCc4c(F)cccc43)ccc21 [Example 38] was run?
**A.** The Ki was less than 500 nM.

**Q.** How did the Ki turn out when C[C@@H](CN1CCOCC1)n1c(=O)[nH]c2cc(/C=C3/c4ccc(F)cc4OCc4c(F)cccc43)ccc21 [Example 39] was run?
**A.** The Ki was less than 1000 nM.

**Q.** With CC(C)(CN1CCOCC1)n1c(=O)[nH]c2cc(/C=C3/c4ccc(F)cc4OCc4c(F)cccc43)ccc21 [Example 40] as the compound, how does the Ki read?
**A.** The Ki was less than 1000 nM.

**Q.** Which Ki does the source give for C[C@@H]1CN(CCn2c(=O)[nH]c3cc(/C=C4/c5ccc(F)cc5OCc5c(F)cccc54)ccc32)C[C@H](C)O1 [Example 41] here?
**A.** The Ki was less than 500 nM.

**Q.** For O=c1[nH]c2cc(/C=C3/c4ccc(F)cc4OCc4c(F)cccc43)ccc2n1CCCN1CCOCC1 [Example 42], which Ki is on record?
**A.** The Ki was less than 500 nM.

**Q.** For O=c1[nH]c2cc(/C=C3/c4ccc(F)cc4OCc4c(F)cccc43)ccc2n1CCN1CCNCC1 [Example 43], which Ki is on record?
**A.** The Ki was less than 500 nM.

**Q.** For CCN1CC[C@H](n2c(=O)[nH]c3cc(/C=C4/c5ccc(F)cc5OCc5c(F)cccc54)ccc32)C1 [Example 44], which Ki is on record?
**A.** Its Ki is less than 1000 nM.

**Q.** Which Ki does the source give for CN1CC[C@H](n2c(=O)[nH]c3cc(/C=C4/c5ccc(F)cc5OCc5c(F)cccc54)ccc32)C1 [Example 45] here?
**A.** Its Ki is less than 10000 nM.

**Q.** CCN1CC[C@@H](n2c(=O)[nH]c3cc(/C=C4/c5ccc(F)cc5OCc5c(F)cccc54)ccc32)C1 [Example 46] was tested. Which Ki did it give?
**A.** The Ki was less than 1000 nM.
